One compound from patent US12692239B2, “Methods and compositions for targeting Tregs using CCR8 inhibitors” (Nanjing Immunophage Biomedical Co., Ltd., priority 2020, dated 2026) can be followed below.

This experiment deals with CCR8 (Homo sapiens, UniProt P51685). Briefly: Tango assay (Tango-CCR8-Gal4-CHO-K1 cells, CCL1-stimulated, ONE-Glo luminescence). The settings on record: Tango Assay IC50, Inhibition of CCR8 Tango cell in vitro.

Where a name gives a salt, the structure may show the parent alone.

Sequence of CCR8 (P51685 whole entry, the tested form may be a part): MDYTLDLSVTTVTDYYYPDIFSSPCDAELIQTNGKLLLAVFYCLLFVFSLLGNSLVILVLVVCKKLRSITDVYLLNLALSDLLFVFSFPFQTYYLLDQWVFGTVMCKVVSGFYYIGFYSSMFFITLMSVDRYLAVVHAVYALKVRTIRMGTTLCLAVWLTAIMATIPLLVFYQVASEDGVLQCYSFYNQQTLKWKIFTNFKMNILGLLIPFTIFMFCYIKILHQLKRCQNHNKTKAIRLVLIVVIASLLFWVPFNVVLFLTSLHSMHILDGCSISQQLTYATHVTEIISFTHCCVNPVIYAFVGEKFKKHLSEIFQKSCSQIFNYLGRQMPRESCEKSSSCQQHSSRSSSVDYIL
Procedure: The Tango cell line was used to monitor antagonists-mediated receptor inactivation.
Tango cells (Tango-CCR8-Gal4-CHO-K1 cells constructed by Genomeditech) were passaged in complete medium (F12K, 10% FBS, 1% penicillin-streptomycin, 4 g/ml puromycin, 4 g/ml blasticidin and 100 g/ml hygromycin) in incubator (37° C., 5% CO2).
Twenty-four hours before the seed, cells were cultured in 10 or 15 cm dish at a density of 30% confluence in culture medium (F12K, 10% FBS, 1% penicillin-streptomycin).
Cells were suspended in starving medium (F12K, 1% FBS, 1% penicillin-streptomycin) before being seeded into black/clear 96 wells (1×10^4 cells/70 μl/well) and incubated for 6 hours (37° C., 5% CO2). Different concentration of compound, dissolved in DMSO, was into the 96-well plates, with 50 μl in each well, and incubation continued for 1 hour at 37° C.
After the incubation, the medium was removed and the 96-well plate was put in −80° C. freezer for an hour or longer. The plate and the ONE-Glo reagent (Promega, Catalog Number: E6110) which was frozen in −80° C., were taken out and rewarmed to room temperature. […] After incubating for 10 minutes at room temperature, the plate was read using microplate luminescence reader at 560 nm.
The microplate reader records luminescence in relative luminescence units (RLU).

In turn, `Cc1ccccc1C(=O)Nc1c(C)cc(S(=O)(=O)N[C@H](C)C2CCNCC2)cc1Cl` [Compound 180A, (R)-N-(2-chloro-6-methyl-4-(N-(1-(piperidin-4-yl)ethyl)sulfamoyl)phenyl)-2-methylbenzamide hydrochloride] showed an IC50 of 9 nM.
